ChEMBL document CHEMBL2417440, “Experimental and structural testing module to analyze paralogue-specificity and affinity in the Hsp90 inhibitors series” (J Med Chem, 2013)
Activity calls are given as the source filed them. The rule behind the calls is not given here.

Tests used:
[1] = biological target: T1, Heat shock protein HSP90 (Homo sapiens) (UniProt P07900+P08238); assay: Binding affinity to HSP90 in human SKBR3 cell lysates at 3 nM up to 24 hrs by fluorescence polarization assay; type: protein assay; details: SK-BR-3
[2] = biological target: T2, Endoplasmin (Canis lupus familiaris, UniProt P41148); assay: Binding affinity to dog Grp94 by fluorescence polarization assay; details: read-out: Kd(app)
[3] = biological target: T3, Heat shock protein HSP 90-beta (Homo sapiens, UniProt P08238); assay: Binding affinity to recombinant HSP90beta (unknown origin) by fluorescence polarization assay; details: read-out: Kd(app)
[4] = biological target: T4, Heat shock protein 75 kDa, mitochondrial (Homo sapiens, UniProt Q12931)
T4 sequence (Q12931 whole entry): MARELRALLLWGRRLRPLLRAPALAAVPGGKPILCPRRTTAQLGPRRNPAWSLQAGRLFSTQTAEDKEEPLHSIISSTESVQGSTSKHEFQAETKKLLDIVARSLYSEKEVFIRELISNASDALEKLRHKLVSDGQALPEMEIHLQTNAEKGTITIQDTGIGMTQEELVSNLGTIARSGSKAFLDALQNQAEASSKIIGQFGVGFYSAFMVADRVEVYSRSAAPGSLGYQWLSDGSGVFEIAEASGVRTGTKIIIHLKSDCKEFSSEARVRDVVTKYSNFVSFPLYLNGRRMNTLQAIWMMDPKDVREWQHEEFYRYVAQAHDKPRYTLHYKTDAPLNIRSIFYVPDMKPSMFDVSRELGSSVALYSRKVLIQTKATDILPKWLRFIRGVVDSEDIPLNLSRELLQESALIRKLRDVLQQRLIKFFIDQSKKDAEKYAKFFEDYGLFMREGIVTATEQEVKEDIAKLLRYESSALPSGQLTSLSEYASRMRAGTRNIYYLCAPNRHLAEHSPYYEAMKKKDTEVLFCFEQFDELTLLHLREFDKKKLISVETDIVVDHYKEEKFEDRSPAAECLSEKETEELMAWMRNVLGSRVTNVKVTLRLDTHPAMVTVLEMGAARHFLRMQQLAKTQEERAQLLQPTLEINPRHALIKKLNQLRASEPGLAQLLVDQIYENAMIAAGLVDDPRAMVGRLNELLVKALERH
Description: Binding affinity to recombinant human Trap-1 by fluorescence polarization assay

[5] = biological target: T5, Heat shock protein HSP 90-alpha (Homo sapiens, UniProt P07900); assay: Binding affinity to HSP90alpha (unknown origin) by fluorescence polarization assay; details: read-out: Kd(app)
[6] = biological target: T1, Heat shock protein HSP90 (Homo sapiens); assay: Binding affinity to HSP90 in human SKBR3 cell lysates at 3 nM after 8 hrs by fluorescence polarization assay; type: protein assay; details: SK-BR-3
[7] = biological target: T4, Heat shock protein 75 kDa, mitochondrial; remark: listed apart in the source
[8] = biological target: T5, Heat shock protein HSP 90-alpha; assay: Binding affinity to HSP90alpha (unknown origin)
[9] = biological target: T3, Heat shock protein HSP 90-beta
[10] = biological target: T2, Endoplasmin
[11] = biological target: T3, Heat shock protein HSP 90-beta; assay: Binding affinity to HSP90beta (unknown origin)
[12] = biological target: Endoplasmin (Homo sapiens) (UniProt P14625); assay: Binding affinity to GRP94 (unknown origin)
[13] = biological target: T1, Heat shock protein HSP90 (Homo sapiens); assay: Binding affinity to HSP90 (unknown origin); type: protein assay
[14] = biological target: T5, Heat shock protein HSP 90-alpha
[15] = biological target: T6, Heat shock protein 75 kDa, mitochondrial (Homo sapiens) (UniProt Q12931); assay: Binding affinity to TRAP1 (unknown origin)
T6 sequence (whole entry): T4 sequence (Q12931 whole entry)

[16] = species: Homo sapiens; assay: Ratio of binding affinity to HASP90 (unknown origin) to TRAP1 (unknown origin)

T3 sequence (P08238 whole entry): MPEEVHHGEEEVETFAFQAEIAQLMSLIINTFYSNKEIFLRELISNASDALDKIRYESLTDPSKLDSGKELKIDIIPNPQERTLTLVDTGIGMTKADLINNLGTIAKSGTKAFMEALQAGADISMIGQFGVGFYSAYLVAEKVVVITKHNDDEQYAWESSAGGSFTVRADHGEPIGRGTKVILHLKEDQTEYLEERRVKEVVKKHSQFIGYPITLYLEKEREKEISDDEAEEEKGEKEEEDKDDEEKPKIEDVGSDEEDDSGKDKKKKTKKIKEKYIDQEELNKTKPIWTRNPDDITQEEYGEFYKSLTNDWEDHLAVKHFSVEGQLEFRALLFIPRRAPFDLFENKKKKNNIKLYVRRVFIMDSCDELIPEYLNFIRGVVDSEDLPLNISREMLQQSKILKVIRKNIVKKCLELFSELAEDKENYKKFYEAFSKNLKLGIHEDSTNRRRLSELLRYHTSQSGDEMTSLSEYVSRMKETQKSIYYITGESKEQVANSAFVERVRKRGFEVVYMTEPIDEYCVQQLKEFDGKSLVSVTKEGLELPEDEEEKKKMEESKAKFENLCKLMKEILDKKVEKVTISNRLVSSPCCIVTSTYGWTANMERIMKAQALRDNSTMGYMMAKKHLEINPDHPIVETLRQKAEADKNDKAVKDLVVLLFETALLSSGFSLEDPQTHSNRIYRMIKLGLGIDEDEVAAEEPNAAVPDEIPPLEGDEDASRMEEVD
T2 sequence (P41148 whole entry): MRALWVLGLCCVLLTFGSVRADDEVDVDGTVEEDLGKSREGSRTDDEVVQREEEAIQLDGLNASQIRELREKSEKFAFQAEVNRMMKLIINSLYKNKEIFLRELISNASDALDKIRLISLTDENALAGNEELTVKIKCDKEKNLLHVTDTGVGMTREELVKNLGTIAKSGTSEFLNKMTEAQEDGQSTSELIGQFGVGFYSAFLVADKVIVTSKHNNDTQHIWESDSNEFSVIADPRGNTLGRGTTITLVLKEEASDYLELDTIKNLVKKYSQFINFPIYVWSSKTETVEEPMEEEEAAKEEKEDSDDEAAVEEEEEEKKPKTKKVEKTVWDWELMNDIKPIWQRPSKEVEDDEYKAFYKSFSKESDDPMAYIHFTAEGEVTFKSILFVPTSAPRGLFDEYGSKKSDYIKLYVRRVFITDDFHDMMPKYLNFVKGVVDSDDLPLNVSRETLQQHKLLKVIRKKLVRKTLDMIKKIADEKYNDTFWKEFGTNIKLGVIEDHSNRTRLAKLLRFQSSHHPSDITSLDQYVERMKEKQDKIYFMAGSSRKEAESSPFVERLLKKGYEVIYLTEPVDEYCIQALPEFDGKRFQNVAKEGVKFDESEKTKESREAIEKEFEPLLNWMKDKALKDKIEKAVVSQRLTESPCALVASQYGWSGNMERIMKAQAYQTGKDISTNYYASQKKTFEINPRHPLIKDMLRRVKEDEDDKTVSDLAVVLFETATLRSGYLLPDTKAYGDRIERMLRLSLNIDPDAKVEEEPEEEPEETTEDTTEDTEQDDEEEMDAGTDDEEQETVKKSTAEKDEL
Chain of Endoplasmin (Homo sapiens) (P14625 whole entry): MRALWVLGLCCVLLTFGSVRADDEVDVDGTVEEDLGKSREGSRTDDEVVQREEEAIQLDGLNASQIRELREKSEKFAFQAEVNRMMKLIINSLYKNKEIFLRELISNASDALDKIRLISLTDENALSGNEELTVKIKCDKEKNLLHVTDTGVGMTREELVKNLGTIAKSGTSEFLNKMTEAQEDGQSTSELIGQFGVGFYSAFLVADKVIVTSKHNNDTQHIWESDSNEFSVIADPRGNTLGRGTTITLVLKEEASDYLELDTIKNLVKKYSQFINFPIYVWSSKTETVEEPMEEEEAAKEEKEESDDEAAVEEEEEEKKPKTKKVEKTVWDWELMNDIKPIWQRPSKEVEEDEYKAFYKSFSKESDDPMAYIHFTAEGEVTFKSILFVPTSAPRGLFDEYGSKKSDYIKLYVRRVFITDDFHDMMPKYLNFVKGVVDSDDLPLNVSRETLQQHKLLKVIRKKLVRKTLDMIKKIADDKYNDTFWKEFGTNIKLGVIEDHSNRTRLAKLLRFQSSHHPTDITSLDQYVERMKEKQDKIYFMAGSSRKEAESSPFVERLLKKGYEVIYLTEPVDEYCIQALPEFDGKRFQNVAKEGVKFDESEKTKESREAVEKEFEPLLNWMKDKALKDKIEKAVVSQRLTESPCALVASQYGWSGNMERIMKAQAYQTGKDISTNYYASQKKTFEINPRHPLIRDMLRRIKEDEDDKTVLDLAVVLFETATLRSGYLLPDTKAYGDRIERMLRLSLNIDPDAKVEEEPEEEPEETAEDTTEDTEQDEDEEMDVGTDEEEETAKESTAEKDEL

Compound	Activity [1]	Kd [2]	Kd [3]	Kd [5]	IC50 [7]	IC50 [10]	other results
CC(C)N(CCCn1c(Sc2cc3c(cc2I)OCO3)nc2c(N)ncnc21)C(=S)Nc1ccc(-c2c3ccc(=O)cc-3oc3cc(O)ccc23)c(C(=O)O)c1	Active	30.7 nM	2.8 nM	3.9 nM			Kd [4]: 5.8 nM
CO[C@H]1/C=C\C=C(/C)C(=O)NC2=CC(=O)C(NCCCCNC(=O)Cc3ccc4c(c3)C(C)(C)C3=[N+]4CCC4OC5CCN6C(=C5C=C34)C(C)(C)c3cc(S(=O)(=O)[O-])ccc36)=C(C[C@@H](C)C[C@H](OC)[C@H](O)[C@@H](C)/C=C(\C)[C@@H]1OC(N)=O)C2=O (stereo partly specified)		2.5 nM	2.2 nM	0.7 nM			Kd [4]: 51.8 nM
Nc1ncnc2c1nc(Sc1cc3c(cc1I)OCO3)n2CCCNC(=S)Nc1ccc(-c2c3ccc(=O)cc-3oc3cc(O)ccc23)c(C(=O)O)c1	Active	6.6 nM	1.6 nM	1.4 nM			Activity [6]: Active
Nc1ncnc2c1nc(Sc1cc3c(cc1I)OCO3)n2CCCCCCCCNC(=S)Nc1ccc(-c2c3ccc(=O)cc-3oc3cc(O)ccc23)c(C(=O)O)c1	inactive						
Nc1ncnc2c1nc(Sc1cc3c(cc1I)OCO3)n2CCCCCCNC(=S)Nc1ccc(-c2c3ccc(=O)cc-3oc3cc(O)ccc23)c(C(=O)O)c1	Active						
Nc1ncnc2c1nc(Sc1cc3c(cc1I)OCO3)n2CCCCNC(=S)Nc1ccc(-c2c3ccc(=O)cc-3oc3cc(O)ccc23)c(C(=O)O)c1	Active						
Nc1ncnc2c1ncn2[C@@H]1O[C@H](COP(=O)(O)OP(=O)(O)O)[C@@H](O)[C@H]1O [ADENOSINE DIPHOSPHATE]					55600 nM	11400 nM	Activity [8]: 51 µM; IC50 [9]: 42200 nM; Activity [11]: 34 µM; Activity [12]: 2.3 µM; Activity [13]: 41 µM; IC50 [14]: 59300 nM
Nc1ncnc2c1ncn2[C@@H]1O[C@H](COP(=O)(O)OP(=O)(O)OP(=O)(O)O)[C@@H](O)[C@H]1O [ADENOSINE TRIPHOSPHATE]					31300 nM	3240 nM	IC50 [9]: 894000 nM; Activity [15]: 31.3 µM; Activity [12]: 3.4 µM; Activity [13]: 840 µM; IC50 [14]: 861000 nM; Ratio [16]: 10
CC(C)c1cc(-c2n[nH]c(=O)n2-c2ccc3c(ccn3C)c2)c(O)cc1O [GANETESPIB]						10 nM	
C=CCNC1=C2C[C@@H](C)C[C@H](OC)[C@H](O)[C@@H](C)/C=C(\C)[C@H](OC(N)=O)[C@@H](OC)/C=C\C=C(/C)C(=O)NC(=CC1=O)C2=O [TANESPIMYCIN]					1500 nM	31 nM	
